Laboratory results published in patent US20050112099A1, “Tumor antigen BFA5 for prevention and / or treatment of cancer” (Aventis Pasteur, Ltd., priority 2003, published 2005).
Where no end group is shown, it is not given here.

Key:
[1] = test system: peptide-loaded T2 cells; experiment: 51Cr-release CTL assay using peptide-loaded T2 cells; assay type: cell-based, human; conditions: listing of the peptide is the result
[2] = test system: HLA-A*0201 human T cells; experiment: IFN-γ ELISPOT of human T-cell cultures activated with BFA5 peptides; assay type: cell-based; conditions: listing of the peptide is the result
[3] = Rabbit immunization with BFA5 peptides, IgG titer; assay type: in vivo; conditions: for IgG titer × 10^5 (after second Immunization): KLH-coupled peptide with Freund's Incomplete Adjuvant, two weeks later; for IgG titer × 10^5 (after first Immunization): peptide emulsion with Freund's Complete Adjuvant
Protocol: Polyclonal antisera were generated against the following series of 22- to 23-mer peptides of BFA5:
Prebleed samples from rabbits were processed and stored at −20° C. Rabbits were immunized as follows: 1) the peptides were administered as an emulsion with Freund's Complete Adjuvant (FCA); and, 2) two weeks later, the peptides were coupled with Keyhole-Limpet Hemocyanin (KLH)-coupled and administered as an emulsion with Freund's Incomplete Adjuvant FIA.

AELQMTLKL
BFA5 peptides inducing CTL lysis of pulsed cells ([1]; Donor AP10): AELQMTLKL
BFA5 peptides inducing CTL lysis of pulsed cells ([1]; Donor AP31): AELQMTLKL
BFA5 peptides eliciting high IFN-γ release (>200 spots/100,000 cells) ([2]; Donor AP10): AELQMTLKL

ALRIQDIEL
BFA5 peptides eliciting high IFN-γ release (>200 spots/100,000 cells) ([2]; Donor AP10): ALRIQDIEL

ATCGMKVSI
BFA5 peptides inducing CTL lysis of pulsed cells ([1]; Donor AP10): ATCGMKVSI
BFA5 peptides eliciting high IFN-γ release (>200 spots/100,000 cells) ([2]; Donor AP10): ATCGMKVSI

AVYSEILSV
BFA5 peptides eliciting high IFN-γ release (>200 spots/100,000 cells) ([2]; Donor AP10): AVYSEILSV

GVTAEHYAV
BFA5 peptides eliciting high IFN-γ release (>200 spots/100,000 cells) ([2]; Donor AP31): GVTAEHYAV

ILKEKNAEL
BFA5 peptides eliciting high IFN-γ release (>200 spots/100,000 cells) ([2]; Donor AP10): ILKEKNAEL
BFA5 peptides eliciting high IFN-γ release (>200 spots/100,000 cells) ([2]; Donor AP31): ILKEKNAEL

KCTALMLAV
BFA5 peptides eliciting high IFN-γ release (>200 spots/100,000 cells) ([2]; Donor AP10): KCTALMLAV

KLH-AENTMLTSKLKEKQDKEILEAEI ({KLH}-AENTMLTSKLKEKQDKEILEAEI) [CLP 2981]
IgG titer × 10^5 (after second Immunization) ([3]; Rb1): 256 × 10^5
IgG titer × 10^5 (after first Immunization) ([3]; Rb1): 8 × 10^5
IgG titer × 10^5 (after second Immunization) ([3]; Rb2): 64 × 10^5
IgG titer × 10^5 (after first Immunization) ([3]; Rb2): 4 × 10^5

KLH-DEILPSESKQKDYEENSWDTESL ({KLH}-DEILPSESKQKDYEENSWDTESL) [CLP 2979]
IgG titer × 10^5 (after second Immunization) ([3]; Rb1): 256 × 10^5
IgG titer × 10^5 (after first Immunization) ([3]; Rb1): 12 × 10^5
IgG titer × 10^5 (after second Immunization) ([3]; Rb2): 512 × 10^5
IgG titer × 10^5 (after first Immunization) ([3]; Rb2): 25 × 10^5

KLH-MTKRKKTINLNIQDAQKRTALHW ({KLH}-MTKRKKTINLNIQDAQKRTALHW) [CLP 2977]
IgG titer × 10^5 (after second Immunization) ([3]; Rb1): 256 × 10^5
IgG titer × 10^5 (after first Immunization) ([3]; Rb1): 25 × 10^5
IgG titer × 10^5 (after second Immunization) ([3]; Rb2): 64 × 10^5
IgG titer × 10^5 (after first Immunization) ([3]; Rb2): 6 × 10^5

KLH-NYNNHLKNRIYQYEKEKAETENS ({KLH}-NYNNHLKNRIYQYEKEKAETENS) [CLP 2982]
IgG titer × 10^5 (after second Immunization) ([3]; Rb1): 64 × 10^5
IgG titer × 10^5 (after first Immunization) ([3]; Rb1): 2/2 × 10^5
IgG titer × 10^5 (after second Immunization) ([3]; Rb2): 32 × 10^5
IgG titer × 10^5 (after first Immunization) ([3]; Rb2): 2/2 × 10^5

KLH-RLTLNQEEEKRRNADILNEKIRE ({KLH}-RLTLNQEEEKRRNADILNEKIRE) [CLP 2980]
IgG titer × 10^5 (after second Immunization) ([3]; Rb1): 1024 × 10^5
IgG titer × 10^5 (after first Immunization) ([3]; Rb1): 25 × 10^5
IgG titer × 10^5 (after second Immunization) ([3]; Rb2): 128 × 10^5
IgG titer × 10^5 (after first Immunization) ([3]; Rb2): 12 × 10^5

KLH-TSEKFTWPAKGRPRKIAWEKKED ({KLH}-TSEKFTWPAKGRPRKIAWEKKED) [CLP 2978]
IgG titer × 10^5 (after second Immunization) ([3]; Rb1): 64 × 10^5
IgG titer × 10^5 (after first Immunization) ([3]; Rb1): 25/25 × 10^5
IgG titer × 10^5 (after second Immunization) ([3]; Rb2): 256 × 10^5
IgG titer × 10^5 (after first Immunization) ([3]; Rb2): 25/25 × 10^5

KSQEPAFHI
BFA5 peptides eliciting high IFN-γ release (>200 spots/100,000 cells) ([2]; Donor AP31): KSQEPAFHI

KVMEINREV
BFA5 peptides eliciting high IFN-γ release (>200 spots/100,000 cells) ([2]; Donor AP10): KVMEINREV

KVSIPTKAL
BFA5 peptides inducing CTL lysis of pulsed cells ([1]; Donor AP31): KVSIPTKAL
BFA5 peptides eliciting high IFN-γ release (>200 spots/100,000 cells) ([2]; Donor AP10): KVSIPTKAL

MLKKEIAML
BFA5 peptides eliciting high IFN-γ release (>200 spots/100,000 cells) ([2]; Donor AP31): MLKKEIAML

MLKLEIATL
BFA5 peptides inducing CTL lysis of pulsed cells ([1]; Donor AP31): MLKLEIATL
BFA5 peptides eliciting high IFN-γ release (>200 spots/100,000 cells) ([2]; Donor AP10): MLKLEIATL
BFA5 peptides eliciting high IFN-γ release (>200 spots/100,000 cells) ([2]; Donor AP31): MLKLEIATL

NLNYAGDAL
BFA5 peptides eliciting high IFN-γ release (>200 spots/100,000 cells) ([2]; Donor AP10): NLNYAGDAL
BFA5 peptides eliciting high IFN-γ release (>200 spots/100,000 cells) ([2]; Donor AP31): NLNYAGDAL

NLVDVYGNM
BFA5 peptides inducing CTL lysis of pulsed cells ([1]; Donor AP10): NLVDVYGNM
BFA5 peptides eliciting high IFN-γ release (>200 spots/100,000 cells) ([2]; Donor AP10): NLVDVYGNM

QIMEYIRKL
BFA5 peptides inducing CTL lysis of pulsed cells ([1]; Donor AP31): QIMEYIRKL
BFA5 peptides eliciting high IFN-γ release (>200 spots/100,000 cells) ([2]; Donor AP10): QIMEYIRKL
BFA5 peptides eliciting high IFN-γ release (>200 spots/100,000 cells) ([2]; Donor AP31): QIMEYIRKL

QLQSKNMWL
BFA5 peptides inducing CTL lysis of pulsed cells ([1]; Donor AP31): QLQSKNMWL
BFA5 peptides eliciting high IFN-γ release (>200 spots/100,000 cells) ([2]; Donor AP10): QLQSKNMWL
BFA5 peptides eliciting high IFN-γ release (>200 spots/100,000 cells) ([2]; Donor AP31): QLQSKNMWL

SIPTKALEL
BFA5 peptides inducing CTL lysis of pulsed cells ([1]; Donor AP31): SIPTKALEL
BFA5 peptides eliciting high IFN-γ release (>200 spots/100,000 cells) ([2]; Donor AP10): SIPTKALEL

SLKINLNYA
BFA5 peptides inducing CTL lysis of pulsed cells ([1]; Donor AP31): SLKINLNYA
BFA5 peptides eliciting high IFN-γ release (>200 spots/100,000 cells) ([2]; Donor AP10): SLKINLNYA
BFA5 peptides eliciting high IFN-γ release (>200 spots/100,000 cells) ([2]; Donor AP31): SLKINLNYA

SLSKILDTV
BFA5 peptides inducing CTL lysis of pulsed cells ([1]; Donor AP31): SLSKILDTV
BFA5 peptides eliciting high IFN-γ release (>200 spots/100,000 cells) ([2]; Donor AP10): SLSKILDTV
BFA5 peptides eliciting high IFN-γ release (>200 spots/100,000 cells) ([2]; Donor AP31): SLSKILDTV

SLTPLLLSI
BFA5 peptides inducing CTL lysis of pulsed cells ([1]; Donor AP31): SLTPLLLSI
BFA5 peptides eliciting high IFN-γ release (>200 spots/100,000 cells) ([2]; Donor AP10): SLTPLLLSI
BFA5 peptides eliciting high IFN-γ release (>200 spots/100,000 cells) ([2]; Donor AP31): SLTPLLLSI

SVPNKAFEL
BFA5 peptides eliciting high IFN-γ release (>200 spots/100,000 cells) ([2]; Donor AP10): SVPNKAFEL

SVPNKALEL
BFA5 peptides eliciting high IFN-γ release (>200 spots/100,000 cells) ([2]; Donor AP10): SVPNKALEL

TVSQKDVCL
BFA5 peptides eliciting high IFN-γ release (>200 spots/100,000 cells) ([2]; Donor AP10): TVSQKDVCL

VFAADICGV
BFA5 peptides eliciting high IFN-γ release (>200 spots/100,000 cells) ([2]; Donor AP31): VFAADICGV

VLKKKLSEA
BFA5 peptides eliciting high IFN-γ release (>200 spots/100,000 cells) ([2]; Donor AP31): VLKKKLSEA

YLLHENCML
BFA5 peptides inducing CTL lysis of pulsed cells ([1]; Donor AP10): YLLHENCML
BFA5 peptides eliciting high IFN-γ release (>200 spots/100,000 cells) ([2]; Donor AP10): YLLHENCML
BFA5 peptides eliciting high IFN-γ release (>200 spots/100,000 cells) ([2]; Donor AP31): YLLHENCML
